Experimental data from US20250235543A1, “MODIFIED PROTEINS AND PROTEIN DEGRADERS” (Cullgen (Shanghai), Inc., priority 2021, published 2025).

How the values were obtained:
cyclin D1 = assay: Cyclin D1 percentage degradation in Calu-1 cells (immunoblotting); format: cell-based; conditions: 200 nM, 16 hours
Method: (§1) […] A: protein percentage degradation >=80%; B: protein percentage degradation <80%, and >=50%; C: protein percentage degradation <50%, and >=30%; D: protein percentage degradation <30%.
(§2) Cultured cells were washed with cold PBS once and lysed in cold RIPA buffer supplemented with protease inhibitors and phosphatase inhibitors (Beyotime Biotechnology). The solutions were then incubated at 4° C. for 30 min with gentle agitation to fully lysed cells. Cell lysates were centrifuged at 13,000 rpm for 10 min at 4° C. and pellets were discarded. Total protein concentrations in the lysates were determined following BCA assays (Beyotime Biotechnology). Cell lysates were mixed with Laemmli loading buffer and heated at 99° C. for 5 min. Proteins were resolved on SDS-PAGE and visualized using Western ECL Substrate kits on a ChemiDoc MP Imaging system (Bio-Rad). Protein bands were quantitated using the Image Lab software provided by Bio-Rad.

CDK4 = biological target: T1, CDK4 (Homo sapiens, UniProt P11802); assay: CDK4 percentage degradation in Calu-1 cells (immunoblotting); format: cell-based; conditions: Calu-1 cells, 200 nM, 16 hours; read-out: CDK4 Degradation (200 nM)
T1 construct: endogenous in cells; host or cells: Calu-1
Method: as §1, §2

T1 sequence (P11802 2-303 limits assumed): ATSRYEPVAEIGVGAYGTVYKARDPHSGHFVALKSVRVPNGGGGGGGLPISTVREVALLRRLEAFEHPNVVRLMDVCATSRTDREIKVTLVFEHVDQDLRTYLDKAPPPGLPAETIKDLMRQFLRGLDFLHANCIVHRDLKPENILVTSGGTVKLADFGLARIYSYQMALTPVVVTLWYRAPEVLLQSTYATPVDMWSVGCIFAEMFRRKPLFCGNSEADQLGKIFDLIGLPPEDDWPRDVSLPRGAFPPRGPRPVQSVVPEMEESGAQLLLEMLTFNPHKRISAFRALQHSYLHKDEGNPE
T1 sequence (P24385 whole entry partner): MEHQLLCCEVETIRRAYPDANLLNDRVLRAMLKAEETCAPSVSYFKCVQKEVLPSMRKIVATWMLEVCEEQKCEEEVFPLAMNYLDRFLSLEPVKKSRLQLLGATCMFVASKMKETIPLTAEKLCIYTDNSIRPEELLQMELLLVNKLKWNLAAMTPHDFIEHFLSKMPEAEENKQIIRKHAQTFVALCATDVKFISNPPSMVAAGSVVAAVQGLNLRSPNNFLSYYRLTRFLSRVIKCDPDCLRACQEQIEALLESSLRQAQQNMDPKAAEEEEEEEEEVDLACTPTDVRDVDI
T1 sequence (Q16531 2-1140 limits assumed, further chain): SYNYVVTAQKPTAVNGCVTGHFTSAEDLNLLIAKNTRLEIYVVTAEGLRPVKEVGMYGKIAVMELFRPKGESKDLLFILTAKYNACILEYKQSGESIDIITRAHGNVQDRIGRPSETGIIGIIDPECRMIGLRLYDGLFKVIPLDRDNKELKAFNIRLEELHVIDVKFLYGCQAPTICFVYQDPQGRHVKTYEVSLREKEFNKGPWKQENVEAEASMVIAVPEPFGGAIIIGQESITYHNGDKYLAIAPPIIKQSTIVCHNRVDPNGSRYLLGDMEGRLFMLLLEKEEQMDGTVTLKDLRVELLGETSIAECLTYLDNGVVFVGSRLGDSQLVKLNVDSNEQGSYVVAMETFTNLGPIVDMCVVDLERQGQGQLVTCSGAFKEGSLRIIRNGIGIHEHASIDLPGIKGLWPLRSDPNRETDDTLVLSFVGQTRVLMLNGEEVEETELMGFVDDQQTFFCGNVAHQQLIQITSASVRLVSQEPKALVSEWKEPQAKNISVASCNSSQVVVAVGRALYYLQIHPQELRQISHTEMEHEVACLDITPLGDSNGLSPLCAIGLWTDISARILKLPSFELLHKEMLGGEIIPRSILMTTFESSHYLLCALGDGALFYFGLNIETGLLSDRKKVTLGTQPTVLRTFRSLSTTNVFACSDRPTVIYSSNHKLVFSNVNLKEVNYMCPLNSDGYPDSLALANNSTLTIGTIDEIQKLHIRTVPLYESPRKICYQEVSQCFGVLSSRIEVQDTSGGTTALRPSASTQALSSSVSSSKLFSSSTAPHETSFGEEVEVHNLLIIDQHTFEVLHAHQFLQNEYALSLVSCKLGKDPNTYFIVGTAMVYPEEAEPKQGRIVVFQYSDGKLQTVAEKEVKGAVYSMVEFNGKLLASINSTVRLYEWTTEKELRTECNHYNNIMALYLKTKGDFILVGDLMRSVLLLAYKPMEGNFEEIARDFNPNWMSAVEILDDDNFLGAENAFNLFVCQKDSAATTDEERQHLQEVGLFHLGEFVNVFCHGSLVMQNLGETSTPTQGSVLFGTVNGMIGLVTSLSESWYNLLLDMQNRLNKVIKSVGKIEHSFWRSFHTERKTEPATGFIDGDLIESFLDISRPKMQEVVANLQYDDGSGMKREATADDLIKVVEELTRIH

| inhibition at 0.2 µM (CDK4) | SMILES | CyclinD1 Degradation (200 nM) (cyclin D1) |
| --- | --- | --- |
| < 30% | CC(=O)c1c(C)c2cnc(Nc3ccc(N4CCN(CC(=O)NCCOCCOCCC(=O)Nc5ccccc5C(=O)Nc5nc(C)ns5)CC4)cn3)nc2n(C2CCCC2)c1=O [CPD-058, 2-(3-(2-(2-(2-(4-(6-((6-Acetyl-8-cyclopentyl-5-methyl-7-oxo-7,8-dihydropyrido[2,3-d]pyrimidin-2-yl)amino)pyridin-3-yl)piperazin-1-yl)acetamido)ethoxy)ethoxy)propanamido)-N-(3-methyl-1,2,4-thiadiazol-5-yl)benzamide] | D (protein percentage degradation <30%) |
| < 30% | CC(=O)c1c(C)c2cnc(Nc3ccc(N4CCN(CC(=O)NCCOCCOCCC(=O)Nc5ccccc5C(=O)Nc5nc(C6CC6)ns5)CC4)cn3)nc2n(C2CCCC2)c1=O [CPD-059, 2-(3-(2-(2-(2-(4-(6-((6-Acetyl-8-cyclopentyl-5-methyl-7-oxo-7,8-dihydropyrido[2,3-d]pyrimidin-2-yl)amino)pyridin-3-yl)piperazin-1-yl)acetamido)ethoxy)ethoxy)propanamido)-N-(3-cyclopropyl-1,2,4-thiadiazol-5-yl)benzamide] | D (protein percentage degradation <30%) |
| 50 to 80% | CC(=O)c1c(C)c2cnc(Nc3ccc(N4CCN(CC(=O)NCCOCCOCCC(=O)Nc5ccccc5C(=O)Nc5ccc(C)nc5)CC4)cn3)nc2n(C2CCCC2)c1=O [CPD-060, 2-(3-(2-(2-(2-(4-(6-((6-Acetyl-8-cyclopentyl-5-methyl-7-oxo-7,8-dihydropyrido[2,3-d]pyrimidin-2-yl)amino)pyridin-3-yl)piperazin-1-yl)acetamido)ethoxy)ethoxy)propanamido)-N-(6-methylpyridin-3-yl)benzamide] | A (protein percentage degradation >=80%) |
| 50 to 80% | CC(=O)c1c(C)c2cnc(Nc3ccc(N4CCN(CC(=O)NCCOCCOCCC(=O)Nc5ccccc5C(=O)Nc5ccc(C)cn5)CC4)cn3)nc2n(C2CCCC2)c1=O [CPD-061, 2-(3-(2-(2-(2-(4-(6-((6-Acetyl-8-cyclopentyl-5-methyl-7-oxo-7,8-dihydropyrido[2,3-d]pyrimidin-2-yl)amino)pyridin-3-yl)piperazin-1-yl)acetamido)ethoxy)ethoxy)propanamido)-N-(5-methylpyridin-2-yl)benzamide] | A (protein percentage degradation >=80%) |
| < 30% | CC(=O)c1c(C)c2cnc(Nc3ccc(N4CCN(CC(=O)NCCOCCOCCC(=O)Nc5ccccc5C(=O)Nc5nc(C6CCOCC6)c(C)s5)CC4)cn3)nc2n(C2CCCC2)c1=O [CPD-062, 2-(3-(2-(2-(2-(4-(6-((6-Acetyl-8-cyclopentyl-5-methyl-7-oxo-7,8-dihydropyrido[2,3-d]pyrimidin-2-yl)amino)pyridin-3-yl)piperazin-1-yl)acetamido)ethoxy)ethoxy)propanamido)-N-(5-methyl-4-(tetrahydro-2H-pyran-4-yl)thiazol-2-yl)benzamide] | D (protein percentage degradation <30%) |

The remaining lines, values behind:

| SMILES | inhibition at 0.2 µM (CDK4) | CyclinD1 Degradation (200 nM) (cyclin D1) |
| --- | --- | --- |
| CC(=O)c1c(C)c2cnc(Nc3ccc(N4CCN(CC(=O)NCCOCCOCCOCCOCCNC(=O)COc5ccc(C(=O)Nc6ncc(C)s6)c(C)c5)CC4)cn3)nc2n(C2CCCC2)c1=O [CPD-041, 4-((20-(4-(6-((6-Acetyl-8-cyclopentyl-5-methyl-7-oxo-7,8-dihydropyrido[2,3-d]pyrimidin-2-yl)amino)pyridin-3-yl)piperazin-1-yl)-2,19-dioxo-6,9,12,15-tetraoxa-3,18-diazaicosyl)oxy)-2-methyl-N-(5-methylthiazol-2-yl)benzamide] | < 30% | D (protein percentage degradation <30%) |
| CC(=O)c1nc(NC(=O)c2ccc(NCCOCCOCCOCCOCCOCCNC(=O)CN3CCN(c4ccc(Nc5ncc6c(C)c(C(C)=O)c(=O)n(C7CCCC7)c6n5)nc4)CC3)cc2C)sc1C [CPD-045, N-(4-Acetyl-5-methylthiazol-2-yl)-4-((1-(4-(6-((6-acetyl-8-cyclopentyl-5-methyl-7-oxo-7,8-dihydropyrido[2,3-d]pyrimidin-2-yl)amino)pyridin-3-yl)piperazin-1-yl)-2-oxo-6,9,12,15,18-pentaoxa-3-azaicosan-20-yl)amino)-2-methylbenzamide] | 50 to 80% | A (protein percentage degradation >=80%) |
| CC(=O)c1c(C)c2cnc(Nc3ccc(N4CCN(CC(=O)NCCCCCCCNC(=O)c5ccc(C(=O)Nc6ncc(C)s6)c(C)c5)CC4)cn3)nc2n(C2CCCC2)c1=O [CPD-048, N^4-(7-(2-(4-(6-((6-Acetyl-8-cyclopentyl-5-methyl-7-oxo-7,8-dihydropyrido[2,3-d]pyrimidin-2-yl)amino)pyridin-3-yl)piperazin-1-yl)acetamido)heptyl)-2-methyl-N^1-(5-methylthiazol-2-yl)terephthalamide] | < 30% | D (protein percentage degradation <30%) |
| CC(=O)c1c(C)c2cnc(Nc3ccc(N4CCN(CC(=O)NCCOCCOCCOCCOCCOCCNc5ccc(C(=O)Nc6cc(C)n(C)n6)c(C)c5)CC4)cn3)nc2n(C2CCCC2)c1=O [CPD-050, 4-((1-(4-(6-((6-Acetyl-8-cyclopentyl-5-methyl-7-oxo-7,8-dihydropyrido[2,3-d]pyrimidin-2-yl)amino)pyridin-3-yl)piperazin-1-yl)-2-oxo-6,9,12,15,18-pentaoxa-3-azaicosan-20-yl)amino)-N-(1,5-dimethyl-1H-pyrazol-3-yl)-2-methylbenzamide] | > 80% | A (protein percentage degradation >=80%) |
| CC(=O)c1c(C)c2cnc(Nc3ccc(N4CCN(CC(=O)NCCOCCOCCC(=O)Nc5ccccc5C(=O)Nc5ncc(C)s5)CC4)cn3)nc2n(C2CCCC2)c1=O [CPD-051, 2-(3-(2-(2-(2-(4-(6-((6-Acetyl-8-cyclopentyl-5-methyl-7-oxo-7,8-dihydropyrido[2,3-d]pyrimidin-2-yl)amino)pyridin-3-yl)piperazin-1-yl)acetamido)ethoxy)ethoxy)propanamido)-N-(5-methylthiazol-2-yl)benzamide] | > 80% | A (protein percentage degradation >=80%) |
| CC(=O)c1c(C)c2cnc(Nc3ccc(N4CCN(CC(=O)NCCOCCOCCC(=O)Nc5ccccc5C(=O)Nc5cc(C)n(C)n5)CC4)cn3)nc2n(C2CCCC2)c1=O [CPD-052, 2-(3-(2-(2-(2-(4-(6-((6-Acetyl-8-cyclopentyl-5-methyl-7-oxo-7,8-dihydropyrido[2,3-d]pyrimidin-2-yl)amino)pyridin-3-yl)piperazin-1-yl)acetamido)ethoxy)ethoxy)propanamido)-N-(1,5-dimethyl-1H-pyrazol-3-yl)benzamide] | 50 to 80% | A (protein percentage degradation >=80%) |
| CC(=O)c1c(C)c2cnc(Nc3ccc(N4CCN(CC(=O)NCCOCCOCCC(=O)Nc5ccccc5C(=O)Nc5ccccn5)CC4)cn3)nc2n(C2CCCC2)c1=O [CPD-053, 2-(3-(2-(2-(2-(4-(6-((6-Acetyl-8-cyclopentyl-5-methyl-7-oxo-7,8-dihydropyrido[2,3-d]pyrimidin-2-yl)amino)pyridin-3-yl)piperazin-1-yl)acetamido)ethoxy)ethoxy)propanamido)-N-(pyridin-2-yl)benzamide] | 50 to 80% | B (protein percentage degradation <80%, and >=50%) |
| CC(=O)c1c(C)c2cnc(Nc3ccc(N4CCN(CC(=O)NCCOCCOCCC(=O)Nc5ccccc5C(=O)Nc5cnc(C)cn5)CC4)cn3)nc2n(C2CCCC2)c1=O [CPD-054, 2-(3-(2-(2-(2-(4-(6-((6-Acetyl-8-cyclopentyl-5-methyl-7-oxo-7,8-dihydropyrido[2,3-d]pyrimidin-2-yl)amino)pyridin-3-yl)piperazin-1-yl)acetamido)ethoxy)ethoxy)propanamido)-N-(5-methylpyrazin-2-yl)benzamide] | 50 to 80% | A (protein percentage degradation >=80%) |
| CC(=O)c1c(C)c2cnc(Nc3ccc(N4CCN(CC(=O)NCCOCCOCCC(=O)Nc5ccccc5C(=O)Nc5ncc(C)cn5)CC4)cn3)nc2n(C2CCCC2)c1=O [CPD-055, 2-(3-(2-(2-(2-(4-(6-((6-Acetyl-8-cyclopentyl-5-methyl-7-oxo-7,8-dihydropyrido[2,3-d]pyrimidin-2-yl)amino)pyridin-3-yl)piperazin-1-yl)acetamido)ethoxy)ethoxy)propanamido)-N-(5-methylpyrimidin-2-yl)benzamide] | < 30% | D (protein percentage degradation <30%) |
| CC(=O)c1c(C)c2cnc(Nc3ccc(N4CCN(CC(=O)NCCOCCOCCC(=O)Nc5ccccc5C(=O)Nc5ccc(C)nn5)CC4)cn3)nc2n(C2CCCC2)c1=O [CPD-056, 2-(3-(2-(2-(2-(4-(6-((6-Acetyl-8-cyclopentyl-5-methyl-7-oxo-7,8-dihydropyrido[2,3-d]pyrimidin-2-yl)amino)pyridin-3-yl)piperazin-1-yl)acetamido)ethoxy)ethoxy)propanamido)-N-(6-methylpyridazin-3-yl)benzamide] | 50 to 80% | A (protein percentage degradation >=80%) |
| CC(=O)c1c(C)c2cnc(Nc3ccc(N4CCN(CC(=O)NCCOCCOCCC(=O)Nc5ccccc5C(=O)Nc5nc(C6CC6)c(C)s5)CC4)cn3)nc2n(C2CCCC2)c1=O [CPD-057, 2-(3-(2-(2-(2-(4-(6-((6-Acetyl-8-cyclopentyl-5-methyl-7-oxo-7,8-dihydropyrido[2,3-d]pyrimidin-2-yl)amino)pyridin-3-yl)piperazin-1-yl)acetamido)ethoxy)ethoxy)propanamido)-N-(4-cyclopropyl-5-methylthiazol-2-yl)benzamide] | 50 to 80% | A (protein percentage degradation >=80%) |
